Earlier results as cited in patent US20100120075A1, “Composition and a method for suppressing the luminescence intensity decline in a luciferin-luciferase reaction” (priority 2008, published 2010).

Tested on: Gaussia luciferase

| deactivation of the luciferase | suppression of reaction time-dependent decline in luminescent intensity | Compound |
| --- | --- | --- |
| deactivated the luciferase | did not suppress the decline | CCCCCCCCCCCCOS(=O)(=O)[O-].[Na+] [sodium dodecyl sulfate] |
|  | suppressed | nonyl phenoxylpolyethoxylethanol [NP-40] |

| Compound | deactivation of the luciferase | suppression of reaction time-dependent decline in luminescent intensity |
| --- | --- | --- |
| polyoxyethylene octyl phenyl ether [Triton X-100] |  | suppressed |
